The text below walks through data of patent US20250152585A1, “PHARMACEUTICAL COMPOUND” (Duke Street Bio Limited, priority 2022, published 2025).

A value given as a limit tells only on which side of the number the result lay.

T1 sequence (P09874 whole entry): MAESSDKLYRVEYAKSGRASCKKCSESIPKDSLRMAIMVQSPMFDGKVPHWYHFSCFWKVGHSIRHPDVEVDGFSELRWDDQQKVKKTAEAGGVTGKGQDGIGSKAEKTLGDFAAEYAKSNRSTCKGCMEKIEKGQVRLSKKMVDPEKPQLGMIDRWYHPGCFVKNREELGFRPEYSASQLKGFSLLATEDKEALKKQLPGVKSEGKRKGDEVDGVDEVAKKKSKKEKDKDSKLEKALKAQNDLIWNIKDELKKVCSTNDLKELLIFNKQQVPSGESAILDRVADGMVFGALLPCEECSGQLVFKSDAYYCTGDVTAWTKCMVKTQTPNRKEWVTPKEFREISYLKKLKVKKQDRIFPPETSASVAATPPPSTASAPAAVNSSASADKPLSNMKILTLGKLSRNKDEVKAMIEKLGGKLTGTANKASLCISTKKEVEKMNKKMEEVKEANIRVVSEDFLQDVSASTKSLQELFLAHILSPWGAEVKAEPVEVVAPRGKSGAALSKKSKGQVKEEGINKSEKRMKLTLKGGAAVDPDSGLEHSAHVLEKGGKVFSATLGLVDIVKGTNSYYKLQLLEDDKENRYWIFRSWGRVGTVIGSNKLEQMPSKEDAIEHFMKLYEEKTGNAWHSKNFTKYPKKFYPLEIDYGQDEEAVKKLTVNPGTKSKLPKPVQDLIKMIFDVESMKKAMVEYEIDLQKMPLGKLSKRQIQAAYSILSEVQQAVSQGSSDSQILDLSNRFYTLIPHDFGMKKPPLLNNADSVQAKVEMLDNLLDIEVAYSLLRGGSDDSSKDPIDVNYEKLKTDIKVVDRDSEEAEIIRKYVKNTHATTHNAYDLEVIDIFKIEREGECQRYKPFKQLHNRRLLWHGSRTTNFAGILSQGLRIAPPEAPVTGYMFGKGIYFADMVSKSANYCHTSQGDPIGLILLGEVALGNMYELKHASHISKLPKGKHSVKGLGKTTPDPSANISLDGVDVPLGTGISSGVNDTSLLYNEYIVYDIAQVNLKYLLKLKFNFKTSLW

The first test addresses T1, full length N-terminally FLAG-tagged PARP1 (Homo sapiens, UniProt P09874). Briefly: PARP1 probe displacement HTRF assay. The following applies: PARP1 over PARP2, ratio Kd (PARP2)/Kd (PARP1), probe displacement HTRF. On the technique in general: Time-resolved FRET reads energy transfer from a long-lived donor to a nearby acceptor.
As for `CNC(=O)c1ncc(N2CCC(N3CCC(c4cc5ccc(F)cc5c(=O)[nH]4)C3)CC2)c(C(F)(F)F)n1` (single isomer, unassigned) [Compound 266b], the Selectivity result is recorded as “+++ (+++ indicate a value of at least 100)”.
The same measure, in the same setting: the same measure for `CNC(=O)c1ccc(N2CCC(N3CCC(c4nc5[nH]nc(C(F)(F)F)c5c(=O)[nH]4)C3)CC2)c(F)n1` (single isomer, unassigned) [Compound 267a]: “+ (+ indicates a value of 10 to less than 50)”; for `CNC(=O)c1ccc(N2CCC(N3CCC(c4nc5[nH]nc(C(F)(F)F)c5c(=O)[nH]4)C3)CC2)c(F)n1` (single isomer, unassigned) [Compound 267b]: “+++ (+++ indicate a value of at least 100)”; for `CCCc1ccc(C2CCN(C3CCN(c4ccc(C(=O)NC)nc4F)CC3)C2)[nH]c1=O` (single isomer, unassigned) [Compound 269a]: “+++ (+++ indicate a value of at least 100)”.
On the same count and under the same terms, the same measure for `CCCc1ccc(C2CCN(C3CCN(c4ccc(C(=O)NC)nc4F)CC3)C2)[nH]c1=O` (single isomer, unassigned) [Compound 269b]: “+ (+ indicates a value of 10 to less than 50)”; for `CNC(=O)c1ccc(N2CCC(N3CCC(c4cc5ccc(F)cc5c(=O)[nH]4)C3)CC2)cc1F` (single isomer, unassigned) [Compound 270a]: “− (− indicates a value of less than 10)”.
On the same count and under the same terms, the same measure for `CNC(=O)c1ccc(N2CCC(N3CCC(c4cc5ccc(F)cc5c(=O)[nH]4)C3)CC2)cc1F` (single isomer, unassigned) [Compound 270b]: “+ (+ indicates a value of 10 to less than 50)”; for `CNC(=O)c1ccc(N2CCC(N3CCC(c4nc5c(c(=O)[nH]4)COC5)C3)CC2)cn1` (single isomer, unassigned) [Compound 272a]: “− (− indicates a value of less than 10)”.
On to `CNC(=O)c1ccc(N2CCC(N3CCC(c4nc5c(c(=O)[nH]4)COC5)C3)CC2)cn1` (single isomer, unassigned) [Compound 272b], for which the Selectivity entry is “+ (+ indicates a value of 10 to less than 50)”.
The same measure, in the same setting: the same measure for `CC(=O)Nc1ccc(N2CCC(N3CCC(c4cc5ccccc5c(=O)[nH]4)C3)CC2)c(Cl)c1` (single isomer, unassigned) [Compound 273a]: “− (− indicates a value of less than 10)”.
Same read-out and setting: as for `CNC(=O)c1csc(N2CCC(N3CCC(c4cc5ccccc5c(=O)[nH]4)C3)CC2)n1` (single isomer, unassigned) [Compound 274a], the entry is “− (− indicates a value of less than 10)”; as for `CNC(=O)c1ncc(N2CCC(N3CCC(c4cc5cccc(F)c5c(=O)[nH]4)C3)CC2)c(C(F)(F)F)n1` (single isomer, unassigned) [Compound 277a], “+++ (+++ indicate a value of at least 100)”; as for `CNC(=O)c1ncc(N2CCC(N3CCC(c4cc5cccc(F)c5c(=O)[nH]4)C3)CC2)c(C(F)(F)F)n1` (single isomer, unassigned) [Compound 277b], “++ (++ indicates a value of 50 to less than 100)”.

The same test, now with this note: read-out: PARP1 HTRF; binned Kd, probe displacement HTRF.
`CNC(=O)c1ncc(N2CCC(N3CCC(c4cc5ccc(F)cc5c(=O)[nH]4)C3)CC2)c(C(F)(F)F)n1` (single isomer, unassigned) [Compound 266b]: the Kd fell in the range of 10 to 100 nM.
Still for that read-out and setting: as for `CNC(=O)c1ccc(N2CCC(N3CCC(c4nc5[nH]nc(C(F)(F)F)c5c(=O)[nH]4)C3)CC2)c(F)n1` (single isomer, unassigned) [Compound 267a], the figure is 10 to 100 nM.
Same read-out and setting: the same measure for `CNC(=O)c1ccc(N2CCC(N3CCC(c4nc5[nH]nc(C(F)(F)F)c5c(=O)[nH]4)C3)CC2)c(F)n1` (single isomer, unassigned) [Compound 267b]: less than 10 nM.
On the same count and under the same terms, the same measure for `CCCc1ccc(C2CCN(C3CCN(c4ccc(C(=O)NC)nc4F)CC3)C2)[nH]c1=O` (single isomer, unassigned) [Compound 269a]: less than 10 nM; for `CCCc1ccc(C2CCN(C3CCN(c4ccc(C(=O)NC)nc4F)CC3)C2)[nH]c1=O` (single isomer, unassigned) [Compound 269b]: 100 to 1000 nM.
Turning to `CNC(=O)c1ccc(N2CCC(N3CCC(c4cc5ccc(F)cc5c(=O)[nH]4)C3)CC2)cc1F` (single isomer, unassigned) [Compound 270a], the Kd is 10 to 100 nM.
Same read-out and setting: as for `CNC(=O)c1ccc(N2CCC(N3CCC(c4cc5ccc(F)cc5c(=O)[nH]4)C3)CC2)cc1F` (single isomer, unassigned) [Compound 270b], the figure is less than 10 nM; as for `CNC(=O)c1ccc(N2CCC(N3CCC(c4nc5c(c(=O)[nH]4)COC5)C3)CC2)cn1` (single isomer, unassigned) [Compound 272a], greater than 10000 nM.
Same read-out and setting: the same measure for `CNC(=O)c1ccc(N2CCC(N3CCC(c4nc5c(c(=O)[nH]4)COC5)C3)CC2)cn1` (single isomer, unassigned) [Compound 272b]: 100 to 1000 nM; for `CC(=O)Nc1ccc(N2CCC(N3CCC(c4cc5ccccc5c(=O)[nH]4)C3)CC2)c(Cl)c1` (single isomer, unassigned) [Compound 273a]: 100 to 1000 nM.
Still for that read-out and setting: as for `CNC(=O)c1csc(N2CCC(N3CCC(c4cc5ccccc5c(=O)[nH]4)C3)CC2)n1` (single isomer, unassigned) [Compound 274a], the figure is 100 to 1000 nM; as for `CNC(=O)c1ncc(N2CCC(N3CCC(c4cc5cccc(F)c5c(=O)[nH]4)C3)CC2)c(C(F)(F)F)n1` (single isomer, unassigned) [Compound 277a], less than 10 nM; as for `CNC(=O)c1ncc(N2CCC(N3CCC(c4cc5cccc(F)c5c(=O)[nH]4)C3)CC2)c(C(F)(F)F)n1` (single isomer, unassigned) [Compound 277b], 10 to 100 nM.

The target in another test is T2, N-terminally FLAG-tagged PARP2 (amino acids 1-583) (Homo sapiens, UniProt Q9UGN5).
T2 construct: N-terminally FLAG-tagged PARP2 (amino acids 1-583)
T2 sequence (Q9UGN5 whole entry, the tested form may be a part): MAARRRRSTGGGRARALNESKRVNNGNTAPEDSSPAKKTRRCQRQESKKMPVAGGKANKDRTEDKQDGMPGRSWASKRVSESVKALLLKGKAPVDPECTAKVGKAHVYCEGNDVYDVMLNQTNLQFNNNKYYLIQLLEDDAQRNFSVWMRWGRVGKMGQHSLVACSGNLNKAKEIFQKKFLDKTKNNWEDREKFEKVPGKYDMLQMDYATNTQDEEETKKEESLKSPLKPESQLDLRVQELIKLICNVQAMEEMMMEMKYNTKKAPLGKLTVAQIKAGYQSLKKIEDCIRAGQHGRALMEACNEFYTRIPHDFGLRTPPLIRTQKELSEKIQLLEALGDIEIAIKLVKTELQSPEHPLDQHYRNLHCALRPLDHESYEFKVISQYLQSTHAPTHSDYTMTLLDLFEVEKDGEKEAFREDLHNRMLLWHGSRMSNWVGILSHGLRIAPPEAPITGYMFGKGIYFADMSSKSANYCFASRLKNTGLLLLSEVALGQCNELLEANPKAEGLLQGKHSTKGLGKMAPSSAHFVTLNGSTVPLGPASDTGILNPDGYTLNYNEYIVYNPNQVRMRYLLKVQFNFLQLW
Briefly: PARP2 probe displacement HTRF assay. In kind it is binding. The following applies: binned Kd, probe displacement HTRF. The method, then:
Data analysis was performed identical as for PARP1.
For the compound `CNC(=O)c1ncc(N2CCC(N3CCC(c4cc5ccc(F)cc5c(=O)[nH]4)C3)CC2)c(C(F)(F)F)n1` (single isomer, unassigned) [Compound 266b], the Kd is greater than 10000 nM.
Same read-out and setting: the same measure for `CNC(=O)c1ccc(N2CCC(N3CCC(c4nc5[nH]nc(C(F)(F)F)c5c(=O)[nH]4)C3)CC2)c(F)n1` (single isomer, unassigned) [Compound 267a]: 100 to 1000 nM; for `CNC(=O)c1ccc(N2CCC(N3CCC(c4nc5[nH]nc(C(F)(F)F)c5c(=O)[nH]4)C3)CC2)c(F)n1` (single isomer, unassigned) [Compound 267b]: 10 to 100 nM; for `CCCc1ccc(C2CCN(C3CCN(c4ccc(C(=O)NC)nc4F)CC3)C2)[nH]c1=O` (single isomer, unassigned) [Compound 269a]: 1000 to 10000 nM.
Turning to `CCCc1ccc(C2CCN(C3CCN(c4ccc(C(=O)NC)nc4F)CC3)C2)[nH]c1=O` (single isomer, unassigned) [Compound 269b], the Kd is greater than 10000 nM.
Still for that read-out and setting: the same measure for `CNC(=O)c1ccc(N2CCC(N3CCC(c4cc5ccc(F)cc5c(=O)[nH]4)C3)CC2)cc1F` (single isomer, unassigned) [Compound 270a]: 10 to 100 nM; for `CNC(=O)c1ccc(N2CCC(N3CCC(c4cc5ccc(F)cc5c(=O)[nH]4)C3)CC2)cc1F` (single isomer, unassigned) [Compound 270b]: 10 to 100 nM; for `CNC(=O)c1ccc(N2CCC(N3CCC(c4nc5c(c(=O)[nH]4)COC5)C3)CC2)cn1` (single isomer, unassigned) [Compound 272a]: greater than 10000 nM.
Still for that read-out and setting: as for `CNC(=O)c1ccc(N2CCC(N3CCC(c4nc5c(c(=O)[nH]4)COC5)C3)CC2)cn1` (single isomer, unassigned) [Compound 272b], the figure is greater than 10000 nM; as for `CC(=O)Nc1ccc(N2CCC(N3CCC(c4cc5ccccc5c(=O)[nH]4)C3)CC2)c(Cl)c1` (single isomer, unassigned) [Compound 273a], 1000 to 10000 nM; as for `CNC(=O)c1csc(N2CCC(N3CCC(c4cc5ccccc5c(=O)[nH]4)C3)CC2)n1` (single isomer, unassigned) [Compound 274a], 1000 to 10000 nM.
Still for that read-out and setting: as for `CNC(=O)c1ncc(N2CCC(N3CCC(c4cc5cccc(F)c5c(=O)[nH]4)C3)CC2)c(C(F)(F)F)n1` (single isomer, unassigned) [Compound 277a], the figure is 1000 to 10000 nM.
Compound `CNC(=O)c1ncc(N2CCC(N3CCC(c4cc5cccc(F)c5c(=O)[nH]4)C3)CC2)c(C(F)(F)F)n1` (single isomer, unassigned) [Compound 277b] displayed a Kd greater than 10000 nM.

The next test concerns the target T1, full length N-terminally FLAG-tagged PARP1. Briefly: PARP1 biochemical DELFIA assay (auto-PARylation). The arrangement: recombinant full length human N-terminally FLAG-tagged PARP1. Conditions: binned IC50, biochemical auto-PARylation assay.
A word on the IC50: it is the concentration that inhibits the measured activity by half. `CNC(=O)c1ncc(N2CCC(N3CCC(c4cc5ccc(F)cc5c(=O)[nH]4)C3)CC2)c(C(F)(F)F)n1` (single isomer, unassigned) [Compound 266b]: the IC50 is 10 to 100 nM.
Still for that read-out and setting: as for `CNC(=O)c1ccc(N2CCC(N3CCC(c4nc5[nH]nc(C(F)(F)F)c5c(=O)[nH]4)C3)CC2)c(F)n1` (single isomer, unassigned) [Compound 267a], the figure is 10 to 100 nM; as for `CNC(=O)c1ccc(N2CCC(N3CCC(c4nc5[nH]nc(C(F)(F)F)c5c(=O)[nH]4)C3)CC2)c(F)n1` (single isomer, unassigned) [Compound 267b], less than 10 nM; as for `CCCc1ccc(C2CCN(C3CCN(c4ccc(C(=O)NC)nc4F)CC3)C2)[nH]c1=O` (single isomer, unassigned) [Compound 269a], less than 10 nM.
Turning to `CCCc1ccc(C2CCN(C3CCN(c4ccc(C(=O)NC)nc4F)CC3)C2)[nH]c1=O` (single isomer, unassigned) [Compound 269b], the IC50 lay in the range of 100 to 1000 nM.
Take `CNC(=O)c1ccc(N2CCC(N3CCC(c4cc5ccc(F)cc5c(=O)[nH]4)C3)CC2)cc1F` (single isomer, unassigned) [Compound 270a]: the IC50 lay within 10 to 100 nM.
Turning to `CNC(=O)c1ccc(N2CCC(N3CCC(c4cc5ccc(F)cc5c(=O)[nH]4)C3)CC2)cc1F` (single isomer, unassigned) [Compound 270b], the IC50 was less than 10 nM.
As to `CNC(=O)c1ccc(N2CCC(N3CCC(c4nc5c(c(=O)[nH]4)COC5)C3)CC2)cn1` (single isomer, unassigned) [Compound 272a], the IC50 was greater than 10000 nM.
On the same count and under the same terms, as for `CNC(=O)c1ccc(N2CCC(N3CCC(c4nc5c(c(=O)[nH]4)COC5)C3)CC2)cn1` (single isomer, unassigned) [Compound 272b], the figure is 100 to 1000 nM.
For the compound `CC(=O)Nc1ccc(N2CCC(N3CCC(c4cc5ccccc5c(=O)[nH]4)C3)CC2)c(Cl)c1` (single isomer, unassigned) [Compound 273a], the IC50 fell in the range of 100 to 1000 nM.
`CNC(=O)c1csc(N2CCC(N3CCC(c4cc5ccccc5c(=O)[nH]4)C3)CC2)n1` (single isomer, unassigned) [Compound 274a]: the IC50 lay within 100 to 1000 nM.
For `CNC(=O)c1ncc(N2CCC(N3CCC(c4cc5cccc(F)c5c(=O)[nH]4)C3)CC2)c(C(F)(F)F)n1` (single isomer, unassigned) [Compound 277a], the IC50 is less than 10 nM.
On the same count and under the same terms, the same measure for `CNC(=O)c1ncc(N2CCC(N3CCC(c4cc5cccc(F)c5c(=O)[nH]4)C3)CC2)c(C(F)(F)F)n1` (single isomer, unassigned) [Compound 277b]: 10 to 100 nM.
